{"source": "patent US6376478B1", "about": "“Pharmaceutical compositions and methods for treating anxiety, anxiety disorders and memory impairment using naaladase inhibitors” (Guilford Pharmaceuticals Inc., priority 1999, dated 2002)", "key": {"[1]": {"experiment": "Passive avoidance anxiolytic model (shuttlebox, latency to cross)", "assay_type": "in vivo", "conditions": "for Latency to Cross, Mean / Latency to Cross, individual animals: Table II; for performance compared with flurazepam in passive avoidance: in some experiments", "description": "The passive avoidance test consists of an acquisition and a retention trial. On the day prior to dosing, the animal is placed into the shuttlebox and allowed to acclimate. A conditioned stimulus (light) is presented for approximately 100 seconds. When the animal crosses to the dark compartment, a mild (0.5 mA) footshock is presented until the animal returns to the lighted compartment or for approximately 10 seconds. Animals failing to cross during acquisition trial is randomly replaced. The day following acquisition, animals are administered test article, saline or flurazepam 10 minutes prior to being placed in the shuttlebox and tested for retention as described above. Latency to cross (in seconds) is recorded."}, "NAALADase": {"target": "NAALADase (Homo sapiens, UniProt Q04609)", "sequence (Q04609 whole entry)": "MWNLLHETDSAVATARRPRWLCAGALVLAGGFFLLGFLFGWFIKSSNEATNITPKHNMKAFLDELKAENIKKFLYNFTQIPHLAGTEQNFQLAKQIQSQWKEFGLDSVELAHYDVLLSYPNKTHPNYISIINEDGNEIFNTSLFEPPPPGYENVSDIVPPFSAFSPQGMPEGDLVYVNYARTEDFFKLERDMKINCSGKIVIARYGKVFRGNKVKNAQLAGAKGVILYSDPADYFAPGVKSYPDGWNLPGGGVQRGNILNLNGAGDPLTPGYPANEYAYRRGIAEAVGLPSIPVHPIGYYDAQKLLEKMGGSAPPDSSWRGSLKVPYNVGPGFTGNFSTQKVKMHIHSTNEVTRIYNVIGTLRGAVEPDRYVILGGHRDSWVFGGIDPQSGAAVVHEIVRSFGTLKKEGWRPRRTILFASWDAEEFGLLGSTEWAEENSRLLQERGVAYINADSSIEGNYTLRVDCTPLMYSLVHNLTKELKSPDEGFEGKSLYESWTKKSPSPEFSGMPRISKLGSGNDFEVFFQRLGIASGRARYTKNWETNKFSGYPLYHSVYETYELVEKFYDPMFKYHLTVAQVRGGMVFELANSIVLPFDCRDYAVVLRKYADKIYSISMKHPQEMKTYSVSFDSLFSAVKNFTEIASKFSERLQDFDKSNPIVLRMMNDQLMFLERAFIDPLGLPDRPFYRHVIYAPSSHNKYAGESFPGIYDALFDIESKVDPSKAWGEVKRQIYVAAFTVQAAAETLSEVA", "experiment": "In vitro inhibition of NAALADase activity", "assay_type": "biochemical"}, "[2]": {"conditions": "Flurazepam 3 mg/kg IP group, acquisition is on the day prior to dosing"}, "[3]": {"conditions": "Flurazepam 5 mg/kg IP group, Table I second study, day prior to dosing"}, "[4]": {"conditions": "Flurazepam 5 mg/kg IP, Table I second study"}}, "note": "Values joined by “and” are separate entries in the source; they are usually repeats but may differ in a detail not shown here. Equal entries are not always repeated. Marks after values point to notes of the source that are not given here.", "data": [{"smiles": "CCN(CC)CCN1C(=O)CN=C(c2ccccc2F)c2cc(Cl)ccc21", "note": "[Flurazepam, flurazepam, reference compound]", "values": [{"measurement": "Latency to Cross, Acquisition Trial, MEAN", "setting": "[1]; [2]", "value": 10.1, "unit": "s"}, {"measurement": "Latency to Cross, Acquisition Trial, individual animals", "setting": "[1]; [2]", "value": "7.0 s and 9.5 s and 8.8 s and 2.8 s and 19.3 s and 5.4 s and 8.2 s and 28.2 s and 7.1 s and 2.4 s and 16.7 s and 8.4 s and 11.3 s and 6.9 s and 9.1 s"}, {"measurement": "Latency to Cross, Retention Trial, MEAN", "setting": "[1]; Flurazepam 3 mg/kg IP, 10 minutes before test", "value": 47.5, "unit": "s"}, {"measurement": "Latency to Cross, Retention Trial, individual animals", "setting": "[1]; Flurazepam 3 mg/kg IP, 10 minutes before test, stimulus about 100 seconds", "value": "83.3 seconds and 100.0 seconds (4×) and 5.5 seconds and 4.7 seconds and 16.1 seconds and 65.3 seconds and 6.9 seconds and 2.1 seconds and 34.1 seconds and 2.2 seconds and 47.5 seconds and 34.9 seconds"}, {"measurement": "Latency to Cross, Acquisition Trial, MEAN", "setting": "[1]; [3]", "value": 8.4, "unit": "s"}, {"measurement": "Latency to Cross, Acquisition Trial, individual animals", "setting": "[1]; [3]", "value": "6.6 s and 39.8 s and 2.7 s and 10.6 s and 0.5 s and 0.1 s and 7.4 s and 4.0 s and 4.9 s and 14.7 s and 10.1 s and 9.5 s and 1.9 s and 12.9 s and 0.7 s"}, {"measurement": "Latency to Cross, Retention Trial, MEAN", "setting": "[1]; [4]", "value": 20.8, "unit": "s"}, {"measurement": "Latency to Cross, Retention Trial, individual animals", "setting": "[1]; [4]", "value": "11.2 s and 56.3 s and 10.5 s and 23.9 s and 6.5 s and 6.0 s and 13.4 s and 0.8 s and 21.4 s and 2.9 s and 67.2 s and 19.0 s and 58.3 s and 4.8 s and 9.7 s"}, {"measurement": "Latency to Cross, Mean", "setting": "[1]; Flurazepam 5 mg/kg IP", "value": 12.9, "unit": "s"}, {"measurement": "Latency to Cross, individual animals", "setting": "[1]; Flurazepam 5 mg/kg IP", "value": "4.7 seconds and 9.6 seconds and 4.1 seconds (2×) and 26.0 seconds and 0.3 seconds (2×) and 4.0 seconds (2×) and 8.0 seconds and 3.5 seconds and 12.0 seconds and 16.9 seconds and 89.0 seconds and 6.4 seconds"}]}, {"smiles": "O=C(O)CCC(CP(=O)(O)O)C(=O)O", "note": "(centres unmarked) [Compound 3, 2-(phosphonomethyl)pentanedioic acid]", "values": [{"measurement": "Latency to Cross, Retention Trial, MEAN", "setting": "[1]; Compound 3 100 mg/kg IP", "value": 43.0, "unit": "s"}, {"measurement": "Latency to Cross, Acquisition Trial, MEAN", "setting": "[1]; Compound 3 100 mg/kg IP group, day prior to dosing", "value": 7.8, "unit": "s"}, {"measurement": "Latency to Cross, Acquisition Trial, individual animals", "setting": "[1]; Compound 3 100 mg/kg IP group, day prior to dosing, 100 mg/kg", "value": "11.8 s and 11.5 s and 9.2 s and 0.8 s and 0.6 s and 2.9 s and 18.6 s and 9.3 s and 0.2 s and 2.0 s and 5.9 s and 6.1 s and 25.0 s and 2.2 s and 10.5 s"}, {"measurement": "Latency to Cross, Retention Trial, individual animals", "setting": "[1]; Compound 3 100 mg/kg IP, stimulus about 100 seconds, 100 mg/kg", "value": "100.0 seconds (4×) and 4.6 seconds and 9.9 seconds and 47.4 seconds and 12.9 seconds and 20.6 seconds and 6.6 seconds and 33.0 seconds and 89.8 seconds and 5.2 seconds and 5.9 seconds and 8.5 seconds"}, {"measurement": "anxiolytic properties in passive avoidance", "setting": "[1]; Example 14", "value": "exhibit anxiolytic properties"}, {"measurement": "performance compared with flurazepam in passive avoidance", "setting": "[1]; Example 14", "value": "performed better than the known anxiolytic agent, flurazepam"}]}, {"smiles": "O=C(O)CCC(CP(=O)(O)Cc1c(F)c(F)c(F)c(F)c1F)C(=O)O", "note": "(centres unmarked) [Compound 2, 2-[[(2,3,4,5,6-pentafluorobenzyl)hydroxyphosphinyl]methyl]pentanedioic acid]", "values": [{"measurement": "Latency to Cross, Acquisition Trial, MEAN", "setting": "[1]; Compound 2 100 mg/kg IP group, first study (animals 31-45), day prior to dosing", "value": 6.7, "unit": "s"}, {"measurement": "Latency to Cross, Acquisition Trial, individual animals", "setting": "[1]; Compound 2 100 mg/kg IP group, first study (animals 31-45), day prior to dosing, 100 mg/kg", "value": "4.0 seconds and 0.1 seconds (2×) and 14.9 seconds and 5.0 seconds and 6.4 seconds and 9.5 seconds and 4.6 seconds and 5.7 seconds and 13.0 seconds and 5.1 seconds and 6.2 seconds and 10.1 seconds and 4.3 seconds and 11.4 seconds"}, {"measurement": "Latency to Cross, Acquisition Trial, MEAN", "setting": "[1]; Compound 2 100 mg/kg IP group, second study (animals 103-414), day prior to dosing", "value": 7.5, "unit": "s"}, {"measurement": "Latency to Cross, Acquisition Trial, individual animals", "setting": "[1]; Compound 2 100 mg/kg IP group, second study (animals 103-414), day prior to dosing, 100 mg/kg", "value": "0.0 s and 11.4 s and 12.1 s and 1.5 s and 1.6 s and 7.0 s and 6.8 s and 20.0 s and 2.3 s and 0.6 s and 9.6 s and 3.2 s and 10.4 s and 5.7 s and 18.7 s"}, {"measurement": "Latency to Cross, Retention Trial, MEAN", "setting": "[1]; Compound 2 100 mg/kg IP, first study (animals 31-45), significance difference compared to Group 1, p ≦ 0.05", "value": "66.8^a seconds"}, {"measurement": "Latency to Cross, Retention Trial, individual animals", "setting": "[1]; Compound 2 100 mg/kg IP, first study (animals 31-45), stimulus about 100 seconds, 100 mg/kg", "value": "9.8 seconds and 7.1 seconds and 4.8 seconds and 100.0 seconds (8×) and 88.4 seconds and 7.8 seconds and 15.8 seconds and 68.4 seconds"}, {"measurement": "Latency to Cross, Retention Trial, MEAN", "setting": "[1]; Compound 2 100 mg/kg IP, second study (animals 103-414), animal 406 omitted", "value": 29.6, "unit": "s"}, {"measurement": "Latency to Cross, Retention Trial, individual animals", "setting": "[1]; Compound 2 100 mg/kg IP, second study (animals 103-414), animal 406 omitted from statistical analysis, 100 mg/kg", "value": "3.1 seconds and 33.9 seconds and 100.0 seconds (2×) and 13.2 seconds and 6.6 seconds and 39.4 seconds and 7.9 seconds and 33.2 seconds and 8.4 seconds and 41.5 seconds and 19.5 seconds and 7.3 seconds and 100.0^b seconds and 0.3 seconds"}, {"measurement": "anxiolytic properties in passive avoidance", "setting": "[1]; Example 14", "value": "exhibit anxiolytic properties"}, {"measurement": "performance compared with flurazepam in passive avoidance", "setting": "[1]; Example 14", "value": "performed better than the known anxiolytic agent, flurazepam"}]}, {"smiles": "O=C(O)CCC(CCS)C(=O)O", "note": "(centres unmarked) [Compound 1, 2-(2-sulfanylethyl)pentanedioic acid]", "values": [{"measurement": "Ki", "setting": "NAALADase", "value": 510, "unit": "nM"}, {"measurement": "anxiolytic properties in passive avoidance", "setting": "[1]; Example 14", "value": "exhibit anxiolytic properties"}, {"measurement": "performance compared with flurazepam in passive avoidance", "setting": "[1]; Example 14", "value": "performed better than the known anxiolytic agent, flurazepam"}, {"measurement": "Latency to Cross, Mean", "setting": "[1]; Compound 1 1 mg/kg PO", "value": 34.8, "unit": "s"}, {"measurement": "Latency to Cross, individual animals", "setting": "[1]; Compound 1 1 mg/kg PO, 1 mg/kg", "value": "5.9 seconds and 15.8 seconds and 28.4 seconds and 30.3 seconds and 100.0 seconds (3×) and 12.3 seconds and 27.9 seconds and 23.5 seconds and 3.9 seconds and 13.1 seconds and 0.2 seconds and 41.3 seconds and 20.1 seconds"}, {"measurement": "Latency to Cross, Mean", "setting": "[1]; Compound 1 10 mg/kg PO", "value": 23.6, "unit": "s"}, {"measurement": "Latency to Cross, individual animals", "setting": "[1]; Compound 1 10 mg/kg PO, 10 mg/kg", "value": "1.8 s and 28.5 s and 64.1 s and 3.2 s and 14.7 s and 10.3 s and 3.3 s and 24.6 s and 9.4 s and 100.0 s and 22.7 s and 6.6 s and 14.0 s and 38.8 s and 12.1 s"}, {"measurement": "Latency to Cross, Mean", "setting": "[1]; Compound 1 100 mg/kg PO", "value": 18.0, "unit": "s"}, {"measurement": "Latency to Cross, individual animals", "setting": "[1]; Compound 1 100 mg/kg PO, 100 mg/kg", "value": "15.0 s and 19.2 s and 5.6 s and 19.3 s and 6.2 s and 55.7 s and 25.5 s and 21.5 s and 6.6 s and 15.1 s and 8.4 s and 17.4 s and 0.5 s and 0.7 s and 52.8 s"}]}, {"smiles": "O=C(O)CCC(CCCS)C(=O)O", "note": "(centres unmarked) [2-(3-sulfanylpropyl)pentanedioic acid]", "values": [{"measurement": "anxiolytic properties in passive avoidance", "setting": "[1]; Example 15, written in present tense", "value": "exhibit anxiolytic properties"}]}, {"smiles": "O=C(O)CCC(CP(=O)(O)CCc1ccccc1)C(=O)O", "note": "(centres unmarked)", "values": [{"measurement": "Ki", "setting": "NAALADase", "value": 148, "unit": "nM"}]}, {"smiles": "O=C(O)CCC(CP(=O)(O)Cc1ccc(F)cc1)C(=O)O", "note": "(centres unmarked)", "values": [{"measurement": "Ki", "setting": "NAALADase", "value": 70, "unit": "nM"}]}, {"smiles": "Cc1ccc(NCP(=O)(O)CC(CCC(=O)O)C(=O)O)cc1", "note": "(centres unmarked)", "values": [{"measurement": "Ki", "setting": "NAALADase", "value": 5, "unit": "nM"}]}, {"smiles": "CC(CP(=O)(O)O)C(=O)O", "note": "(centres unmarked)", "values": [{"measurement": "Ki", "setting": "NAALADase", "value": 2, "unit": "nM"}]}, {"smiles": "CC(CS)C(CCC(=O)O)C(=O)O", "note": "(centres unmarked) [2-(1-methyl-2-sulfanylethyl)penanedioic acid]", "values": [{"measurement": "Ki", "setting": "NAALADase", "value": 843, "unit": "nM"}]}]}
